biological target: HIV-1 PR (Human immunodeficiency virus type 1 group M subtype B, UniProt P04585); assay: HIV-protease inhibitory activity assay (FRET peptide substrate); assay type: biochemical; details: Test Example 1
Outline: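 Compounds were preincubated with HIV-1 PR (0.83 ng) at room temperature in pH 4.8 NaAc buffer (0.5 M NaCl, EDTA, DTT, Tween 20), then HiLyte Fluor 488/QXL 520 FRET peptide (2 μmol/L final) was added for 60 min. Fluorescence was read at 485/535 nm, and IC50 was fitted by four-parameter logistic regression.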

| SMILES | IC50 |
| --- | --- |
| COc1ccc(S(=O)(=O)N(CC(C)C)CC(O)C(Cc2ccc(NCc3cccc(-c4sc5c(c4C(=O)O)CC(C)(C)CC5)c3OCc3ccccc3)cc2)NC(=O)OC2COC3(C)OCCC23)cc1 (centres unmarked) [Compound I-558] | 4.99 nM |
| COc1ccc(S(=O)(=O)N(CC(C)C)CC(O)C(Cc2ccc(NCc3cnc(-c4sc5c(c4C(=O)O)CC(C)(C)CC5)c(C)c3)cc2)NC(=O)OC2COC3(C)OCCC23)cc1 (centres unmarked) [Compound I-559] | 1.87 nM |
| COc1ccc(S(=O)(=O)N(CC(C)C)CC(O)C(Cc2ccc(NCc3cc(O)cc(-c4sc5c(c4C(=O)O)CC(C)(C)CC5)c3)cc2)NC(=O)OC2COC3(C)OCCC23)cc1 (centres unmarked) [Compound I-562] | 1.98 nM |
| COc1ccc(S(=O)(=O)N(CC(C)C)CC(O)C(Cc2ccc(NCc3ccc(Oc4ccc(-c5sc6c(c5C(=O)O)CC(C)(C)CC6)cc4)cc3)cc2)NC(=O)OC2COC3(C)OCCC23)cc1 (centres unmarked) [Compound I-564] | 14.2 nM |
| COc1ccc(S(=O)(=O)N(CC(C)C)CC(O)C(Cc2ccc(NCc3ccc(C#N)cc3-c3sc4c(c3C(=O)O)CC(C)(C)CC4)cc2)NC(=O)OC2COC3(C)OCCC23)cc1 (centres unmarked) [Compound I-565] | 1.75 nM |
| COc1ccc(S(=O)(=O)N(CC(C)C)CC(O)C(Cc2ccc(NCc3nc4ccccc4cc3-c3sc4c(c3C(=O)O)CC(C)(C)CC4)cc2)NC(=O)OC2COC3(C)OCCC23)cc1 (centres unmarked) [Compound I-568] | 1.54 nM |
| COc1ccc(S(=O)(=O)N(CC(C)C)CC(O)C(Cc2ccc(N(C)CC3=C(c4sc5c(c4C(=O)O)CC(C)(C)CC5)COC3)cc2)NC(=O)OC2COC3(C)OCCC23)cc1 (centres unmarked) [Compound I-569] | 2.22 nM |
| COc1ccc(S(=O)(=O)N(CC(C)C)CC(O)C(Cc2ccc(N(C)Cc3cocc3-c3sc4c(c3C(=O)O)CC(C)(C)CC4)cc2)NC(=O)OC2COC3(C)OCCC23)cc1 (centres unmarked) [Compound I-570] | 1.87 nM |
| COc1ccc(S(=O)(=O)N(CC(C)C)CC(O)C(Cc2ccc(NCc3ccc(Oc4ccc(-c5sc6c(c5C(=O)O)CC(C)(C)CC6)c(C)c4)cc3)cc2)NC(=O)OC2COC3(C)OCCC23)cc1 (centres unmarked) [Compound I-571] | 22.2 nM |
| COc1ccc(S(=O)(=O)N(CC(C)C)CC(O)C(Cc2ccc(N(C)Cc3ccc(Oc4ccc(-c5sc6c(c5C(=O)O)CC(C)(C)CC6)c(C)c4)cc3)cc2)NC(=O)OC2COC3(C)OCCC23)cc1 (centres unmarked) [Compound I-572] | 30 nM |
| COc1ccc(S(=O)(=O)N(CC(C)C)CC(O)C(Cc2ccc(N3CCC(c4ccc(-c5sc6c(c5C(=O)O)CC(C)(C)CC6)cc4)C3)cc2)NC(=O)OC2COC3(C)OCCC23)cc1 (centres unmarked) [Compound I-576] | 4.95 nM |
| COc1ccc(S(=O)(=O)N(CC(C)C)CC(O)C(Cc2ccc(N3CCC(c4ccc(-c5sc6c(c5C(=O)O)CC(C)(C)CC6)cc4)C3)cc2)NC(=O)OC2COC3(C)OCCC23)cc1 (centres unmarked) [Compound I-577] | 6.47 nM |
| COc1ccc(S(=O)(=O)N(CC(C)C)CC(O)C(Cc2ccc(N(C)Cc3ccccc3NC(=O)c3sc4c(c3C(=O)O)CC(C)(C)CC4)cc2)NC(=O)OC2COC3(C)OCCC23)cc1 (centres unmarked) [Compound I-587] | 1.71 nM |
| COc1ccc(S(=O)(=O)N(CC(C)C)CC(O)C(Cc2ccc(N(C)Cc3ccccc3C(=O)N(C)c3sc4c(c3C(=O)O)CC(C)(C)CC4)cc2)NC(=O)OC2COC3(C)OCCC23)cc1 (centres unmarked) [Compound I-590] | 2.82 nM |
| CC(C)CN(CC(O)C(Cc1ccc(NCc2ccccc2C(=O)Nc2sc3c(c2C(=O)O)CC(C)(C)CC3)cc1)NC(=O)OC1COC2(C)OCCC12)S(=O)(=O)c1ccc2c(c1)OCO2 (centres unmarked) [Compound I-591] | 3.16 nM |
| CC(C)CN(CC(O)C(Cc1ccc(NCc2ccccc2C(=O)Nc2sc3c(c2C(=O)O)CC(C)(C)CC3)cc1)NC(=O)OC1COC2(C)OCCC12)S(=O)(=O)c1ccc2ncsc2c1 (centres unmarked) [Compound I-592] | 3.19 nM |
| COc1ccc(S(=O)(=O)N(CC(C)C)C[C@@H](O)[C@H](Cc2ccc(NCC(=O)Nc3sc4c(c3C(=O)O)CC(C)(C)CC4)cc2)NC(=O)OC2CO[C@@]3(C)OCC[C@@H]23)cc1 (some centres unmarked) [Compound I-593] | 1.71 nM |
| COc1ccc(S(=O)(=O)N(CC(C)C)CC(O)C(Cc2ccc(N3CCC(Oc4ccccc4C(=O)Nc4sc5c(c4C(=O)O)CC(C)(C)CC5)C3)cc2)NC(=O)OC2COC3(C)OCCC23)cc1 (centres unmarked) [Compound I-595] | 2.17 nM |
| COc1ccc(S(=O)(=O)N(CC(C)C)CC(O)C(Cc2ccc(N3CCC(Oc4cccc(-c5sc6c(c5C(=O)O)CC(C)(C)CC6)c4C)C3)cc2)NC(=O)OC2COC3(C)OCCC23)cc1 (centres unmarked) [Compound I-597] | 7.37 nM |
| COc1ccc(S(=O)(=O)N(CC(C)C)CC(O)C(Cc2ccc(NCC3CCCCN3C(=O)c3sc4c(c3C(=O)O)CC(C)(C)CC4)cc2)NC(=O)OC2COC3(C)OCCC23)cc1 (centres unmarked) [Compound I-604] | 2.19 nM |
| COc1ccc(S(=O)(=O)N(CC(C)C)CC(O)C(Cc2ccc(NCC3CCCCN3C(=O)c3sc4c(c3C(=O)O)CC(C)(C)CC4)cc2)NC(=O)OC2COC3(C)OCCC23)cc1 (centres unmarked) [Compound I-605] | 1.96 nM |
| COc1ccc(S(=O)(=O)N(CC(C)C)CC(O)C(Cc2ccc(NCc3cc(C)ccc3NC(=O)c3sc4c(c3C(=O)O)CC(C)(C)CC4)cc2)NC(=O)OC2COC3(C)OCCC23)cc1 (centres unmarked) [Compound I-610] | 2.16 nM |

| SMILES | IC50 |
| --- | --- |
| COc1ccc(S(=O)(=O)N(CC(C)C)CC(O)C(Cc2ccc(NCC3CCCCC3NC(=O)c3sc4c(c3C(=O)O)CC(C)(C)CC4)cc2)NC(=O)OC2COC3(C)OCCC23)cc1 (centres unmarked) [Compound I-611] | 1.95 nM |
| COc1ccc(S(=O)(=O)N(CC(C)C)CC(O)C(Cc2ccc(NCc3cc4ccccc4cc3NC(=O)c3sc4c(c3C(=O)O)CC(C)(C)CC4)cc2)NC(=O)OC2COC3(C)OCCC23)cc1 (centres unmarked) [Compound I-612] | 2.11 nM |
| COc1ccc(S(=O)(=O)N(CC(C)C)CC(O)C(Cc2ccc(NCC3CCCCC3C(=O)Nc3sc4c(c3C(=O)O)CC(C)(C)CC4)cc2)NC(=O)OC2COC3(C)OCCC23)cc1 (centres unmarked) [Compound I-615] | 3.37 nM |
| COc1ccc(S(=O)(=O)N(CC(C)C)CC(O)C(Cc2ccc(N(C)CC3CCCCC3C(=O)Nc3sc4c(c3C(=O)O)CC(C)(C)CC4)cc2)NC(=O)OC2COC3(C)OCCC23)cc1 (centres unmarked) [Compound I-616] | 4.2 nM |
| COc1ccc(S(=O)(=O)N(CC(C)C)CC(O)C(Cc2ccc(NCCOc3ccccc3-c3sc4c(c3C(=O)O)CC(C)(C)CC4)cc2)NC(=O)OC2COC3(C)OCCC23)cc1 (centres unmarked) [Compound I-619] | 2.48 nM |
| COc1ccc(S(=O)(=O)N(CC(C)C)CC(O)C(Cc2ccc(N3C(=O)c4cccc(-c5sc6c(c5C(=O)O)CC(C)(C)CC6)c4C3=O)cc2)NC(=O)OC2COC3(C)OCCC23)cc1 (centres unmarked) [Compound I-620] | 2.22 nM |
| COc1ccc(S(=O)(=O)N(CC(C)C)CC(O)C(Cc2ccc(N3C(=O)c4ccc(-c5sc6c(c5C(=O)O)CC(C)(C)CC6)cc4C3=O)cc2)NC(=O)OC2COC3(C)OCCC23)cc1 (centres unmarked) [Compound I-621] | 1.84 nM |
| COc1ccc(S(=O)(=O)N(CC(C)C)CC(O)C(Cc2ccc(N(C)CC3CCCCC3C(=O)Nc3sc4c(c3C(=O)O)CC(C)(C)CC4)cc2)NC(=O)OC2COC3(C)OCCC23)cc1 (centres unmarked) [Compound I-622] | 3.71 nM |
| COc1ccc(S(=O)(=O)N(CC(C)C)CC(O)C(Cc2ccc(NCC3=C(c4sc5c(c4C(=O)O)CC(C)(C)CC5)C4CC(C3)C4(C)C)cc2)NC(=O)OC2COC3(C)OCCC23)cc1 (centres unmarked) [Compound I-626] | 4.58 nM |
| COc1ccc(S(=O)(=O)N(CC(C)C)CC(O)C(Cc2ccc(N(C)CC3=C(c4sc5c(c4C(=O)O)CC(C)(C)CC5)C4CC(C3)C4(C)C)cc2)NC(=O)OC2COC3(C)OCCC23)cc1 (centres unmarked) [Compound I-628] | 5.03 nM |
| COc1ccc(S(=O)(=O)N(CC(C)C)CC(O)C(Cc2ccc(N(C)CC3CCCCC3C(=O)Nc3sc4c(c3C(=O)O)CC(C)(C)CC4)cc2)NC(=O)OC2COC3(C)OCCC23)cc1 (centres unmarked) [Compound I-629] | 2.35 nM |
| COc1ccc(S(=O)(=O)N(CC(C)C)CC(O)C(Cc2ccc(NCc3ccccc3-c3c(C(=O)O)[nH]c4cc(Cl)cc(Cl)c34)cc2)NC(=O)OC2COC3(C)OCCC23)cc1 (centres unmarked) [Compound I-633] | 2.48 nM |
| COc1ccc(S(=O)(=O)N(CC(C)C)CC(O)C(Cc2ccc(NCc3ccccc3-c3c(C(=O)O)[nH]c4cc(OC)ccc34)cc2)NC(=O)OC2COC3(C)OCCC23)cc1 (centres unmarked) [Compound I-634] | 2.26 nM |
| COc1ccc(S(=O)(=O)N(CC(C)C)CC(O)C(Cc2ccc(NCc3ccccc3-c3c(C(=O)O)n(Cc4ccccc4)c4ccc(OC)cc34)cc2)NC(=O)OC2COC3(C)OCCC23)cc1 (centres unmarked) [Compound I-635] | 2.1 nM |
| COc1ccc(S(=O)(=O)N(CC(C)C)CC(O)C(Cc2ccc(N3CCC(C(=O)Nc4sc5c(c4C(=O)O)CC(C)(C)CC5)C3)cc2)NC(=O)OC2COC3(C)OCCC23)cc1 (centres unmarked) [Compound I-645] | 2.51 nM |
| COc1ccc(S(=O)(=O)N(CC(C)C)CC(O)C(Cc2ccc(N3CCC(C(=O)N(C)c4sc5c(c4C(=O)O)CC(C)(C)CC5)C3)cc2)NC(=O)OC2COC3(C)OCCC23)cc1 (centres unmarked) [Compound I-646] | 2.92 nM |
| COc1ccc(S(=O)(=O)N(CC(C)C)CC(O)C(Cc2ccc(N(C)CCOc3ccccc3-c3sc4c(c3C(=O)O)CC(C)(C)CC4)cc2)NC(=O)OC2COC3(C)OCCC23)cc1 (centres unmarked) [Compound I-647] | 2.59 nM |
| COc1ccc(S(=O)(=O)N(CC(C)C)CC(O)C(Cc2ccc(NCc3cc(-c4sc5c(c4C(=O)O)CC(C)(C)CC5)cc4ccccc34)cc2)NC(=O)OC2COC3(C)OCCC23)cc1 (centres unmarked) [Compound I-650] | 4.31 nM |
| COc1ccc(S(=O)(=O)N(CC(C)C)CC(O)C(Cc2ccc(NCc3cc(Oc4ccccc4)ccc3-c3sc4c(c3C(=O)O)CC(C)(C)CC4)cc2)NC(=O)OC2COC3(C)OCCC23)cc1 (centres unmarked) [Compound I-654] | 8.75 nM |
| COc1ccc(S(=O)(=O)N(CC(C)C)CC(O)C(Cc2ccc(NCc3cc(Cl)ccc3C(=O)Nc3sc4c(c3C(=O)O)CC(C)(C)CC4)cc2)NC(=O)OC2COC3(C)OCCC23)cc1 (centres unmarked) [Compound I-656] | 6.57 nM |
| COc1ccc(S(=O)(=O)N(CC(C)C)CC(O)C(Cc2ccc(NCc3ccc(Cl)cc3C(=O)Nc3sc4c(c3C(=O)O)CC(C)(C)CC4)cc2)NC(=O)OC2COC3(C)OCCC23)cc1 (centres unmarked) [Compound I-657] | 8.14 nM |
| COc1ccc(S(=O)(=O)N(CC(C)C)CC(O)C(Cc2ccc(N(C)Cc3cc(Cl)ccc3C(=O)Nc3sc4c(c3C(=O)O)CC(C)(C)CC4)cc2)NC(=O)OC2COC3(C)OCCC23)cc1 (centres unmarked) [Compound I-658] | 13.7 nM |
